Here are results for 4 compounds from patent US8119798B2, “P38 kinase inhibitors” (GlaxoSmithKline LLC, priority 2006, dated 2012).

The experiment concerns secretion of TNF-α from LPS-stimulated human monocytes. As to the kind of experiment: LPS-induced TNF-alpha production in human THP-1 cell line. The format is cell-based. Conditions: Monocyte, read-out: EC50, inhibition of secretion of TNF-α from LPS-stimulated human monocytes. The protocol:
THP-1 (human, monocytic) cell line was purchased from the American Type Culture Collection (ATCC, Cat. No.TIB 202). Cell line was passaged three times per week in RPMI 1640 (GIBCO), supplemented with 10% heat-inactivated fetal bovine serum (FBS; Omega Scientific, Tarzana, Calif.), 2 mM L-glutamine, 100 U/ml penicillin and 100 μg/ml streptomycin (Gibco/Invitrogen, Carlsbad, Calif.) in a humidified incubator with 95% air and 5% CO2 at 37° C.
For the assay THP-1 cells were harvested, counted and suspended at 1E6 cells/ml in culture medium. 200 μl of cell suspension was added to each well at 96 well plates to provide density of 2×10^5 cells per well. Serial dilutions of P38 compounds were prepared at final concentrations in culture medium from a 10 mM stock solution, and assayed in triplicate. Vehicle was prepared by adjusting culture medium to 0.1% v/v DMSO which corresponds to the concentration of DMSO in the wells with test compounds.
Cells were incubated in presence of the P38 inhibitor for 30 min. After that cells were stimulated with LPS (E. coli 026:B6, 1 μg/ml) for 4 hr at 37° C. in a 5% CO2-incubator. Reaction was stopped by placing samples on ice and centrifuging for 10 min at 1500×g at 4° C. Cell supernatants were harvested and concentration of TNF—was determined by ELISA (BD Pharmingen, San Diego, Calif., Cat. No. 555212), following the manufacturer's instruction. Absorbance read and analyzed at 450 nm on a spectrophotometric ELISA plate reader (Labsystems Multiskan MCC/340). Replicate readings were averaged and the results are expressed as a percent of OD signal from control.
As usually defined, the EC50 is the midpoint of the concentration-response curve. Turning to `CONC(=O)c1ccc(C)c(Nc2nc(NCC3CCCC(CN)C3)nc(N[C@H](C)C(C)(C)C)n2)c1` (stereo partly shown) [Compound 9], the EC50 worked out at 33 nM.

Take `CONC(=O)c1ccc(C)c(Nc2nc(NCC3CCCC(CN)C3)nc(NC3CCCCC3C)n2)c1` (stereo not shown) [Compound 10]: the EC50 is 22 nM.

For `CONC(=O)c1ccc(C)c(Nc2nc(NCC3CCCC(CN)C3)nc(NC3CCCCC3)n2)c1` (stereo not shown) [Compound 11], the EC50 amounted to 11 nM.

As for `CONC(=O)c1ccc(C)c(Nc2nc(NCc3cccc(C)c3)nc(N[C@H](C)C(C)(C)C)n2)c1` [Compound 12], the EC50 was found to be 122 nM.
